Laboratory results reported in patent US9408393B2, “Bismuth-thiols as antiseptics for agricultural, industrial and other uses” (Microbion Corporation, priority 2010, dated 2016).
Where two headings read alike, the source gives them in different places.

Tests used:
[1] = test system: S. epidermidis S2400-1 biofilm; experiment: Biofilm prevention, BisEDT-antibiotic combinations; assay type: cell-based, Staphylococcus epidermidis; details: for Δ (0.05 BE), biofilm prevention: 0.05 μg/ml BisEDT
Protocol: (§1) S. epidermidis grown in TSB+2% glucose in polystyrene plates for 48 h at 37° C. Gatifloxacin (GF), clindamycin (CM), minocycline (MC), gentamicin (GM), vancomycin (VM), cefazolin (CZ), nafcillin (NC), and rifampicin (RP). […]

S. epidermidis = experiment: Broth dilution MIC/MBC, BT-antibiotic combinations; assay type: cell-based, Staphylococcus epidermidis; details: for Δ, MIC / Δ (0.05 BE), MIC: 0.05 μg/ml BisEDT; for Δ (0.1 BE), MBC: 0.1 μg/ml BisEDT
Protocol: Materials & Methods. Susceptibility studies were performed by broth dilution in 96-well tissue culture plates (Nalge Nunc International, Denmark) in accordance with NCCLS protocols (National Committee for Clinical Laboratory Standards. (1997). Methods for Dilution Antimicrobial Susceptibility Tests for Bacteria that Grow Aerobically: Approved Standard M7-A2 and Informational Supplement M100-S10. NCCLS, Wayne, Pa., USA).
Briefly, overnight bacterial cultures were used to prepare 0.5 McFarland standard suspensions, which were further diluted 1:50 (˜2×10^6 cfu/mL) in cation-adjusted Mueller-Hinton broth medium (BBL, Cockeysville, Md., USA). BTs (prepared as described above) and antibiotics were added at incremental concentrations, keeping the final volume constant at 0.2 mL. Cultures were incubated for 24 h at 37° C. and turbidity was assessed by absorption at 630 nm using an ELISA plate reader (Biotek Instruments, Winooski, Vt., USA) according to the manufacturer's recommendations. […] Viable bacterial counts (cfu/mL) were determined by standard plating on nutrient agar.
The checkerboard method was used to assess the activity of antimicrobial combinations. The fractional inhibitory concentration index (FICI) and the fractional bactericidal concentration index (FBCI) were calculated, according to Eliopoulos et al. (Eliopoulos and Moellering, (1996) Antimicrobial combinations. In Antibiotics in Laboratory Medicine (Lorian, V., Ed.), pp. 330-96, Williams and Wilkins, Baltimore, Md., USA). Synergy was defined as an FICI or FBCI index of […], no interaction at >0.5-4 and antagonism at >4 (Odds, F C (2003) Synergy, antagonism, and what the chequerboard puts between them. Journal of Antimicrobial Chemotherapy 52:1). Synergy was also defined conventionally as ≧4-fold decrease in antibiotic concentration.

S. epidermidis biofilm = experiment: Biofilm prevention concentration (BPC), BisEDT and antibiotics; assay type: cell-based, Staphylococcus epidermidis; details: for Fold reduction of BPC in presence of subMIC BisEDT: TSB + 2% glucose, 48 h
Protocol: as §1

[2] = test system: MRSA clinical isolates biofilm; experiment: Biofilm-prevention concentration (BPC) in BHIG/X medium with subMIC BisEDT; assay type: cell-based, Staphylococcus aureus; details: 12 MRSA clinical isolates, mean ± SD
Protocol: (§2) Broth dilution antimicrobial susceptibility studies were performed against 12 MRSA strains using several antibiotics combined with subMIC levels of BisEDT (Table 18). Both the biofilm-prevention concentration (BPC) and the minimum inhibitory concentration (MIC) were determined in a special biofilm culture medium (BHIG/X). […] These strains were already sensitive to vancomycin, but were made considerably moreso in the presence of subMIC BisEDT.

MRSA clinical isolates [3] = experiment: Broth dilution MIC in BHIG/X medium with subMIC BisEDT; assay type: cell-based, Staphylococcus aureus; details: Staphylococcus aureus, MRSA, 12 MRSA clinical isolates, BHIG/X, mean ± SD
Protocol: as §2
In this particular study, the data indicated synergy between BisEDT and cefepime (FIC<0.5), with many of the isolates at the breakpoint for sensitivity.

MRSA clinical isolates [4] = details: cited from earlier work; for MIC Standards, R (resistance): Standard MIC breakpoint for resistance; for MIC Standards, S (antibiotic sensitivity): Standard MIC breakpoint for sensitivity
Burkholderia cepacia = experiment: Single-point BisEDT-antibiotic combination FICI; assay type: cell-based; details: Bcep 1756
[5] = test system: Streptococcus pneumoniae (SP, PRSP); experiment: Single-point BisEDT-antibiotic combination FICI; details: PRSP 5348
[6] = test system: Staphylococcus aureus (SA, MRSA); experiment: Single-point BisEDT-antibiotic combination FICI; assay type: cell-based
Pseudomonas aeruginosa = experiment: Single-point BisEDT-antibiotic combination FICI; assay type: cell-based; details: PA 1380
Acinetobacter baumanii = experiment: Single-point BisEDT-antibiotic combination FICI; assay type: cell-based; details: Abau 2594
Bukholderia multivorans = experiment: Single-point BisEDT-antibiotic combination FICI; assay type: cell-based; details: Bmult 5665
Enterococcus faecalis = experiment: Single-point BisEDT-antibiotic combination FICI; assay type: cell-based; details: E Fc 3121
Klebsiella pneumoniae = experiment: Single-point BisEDT-antibiotic combination FICI; assay type: cell-based; details: KP 1231
Escherichia coli = experiment: Single-point BisEDT-antibiotic combination FICI; assay type: cell-based
[7] = test system: lawn of MRSA (Methicillin-resistant S. aureus); experiment: Antibiotic-soaked discs on bacterial lawn with and without BisEDT; assay type: cell-based, Staphylococcus aureus; details: antibiotic discs combined with BisEDT 0.05 μg/ml
Protocol: FIGS. 4A and 4B show the subinhibitory BisEDT reversing antibiotic-resistance to several antibiotics. Effects of antibiotics with and without BisEDT (0.05 μg/ml) on a lawn of MRSA (Methicillin-resistant S. aureus) is shown. […] [GM=gentamicin, CZ=cefazolin, FEP=cefepime, IPM=imipenim, SAM=ampicillin/sulbactam, LVX=levofloxacin.

[8] = S. epidermidis ATCC 35984, BisEDT 0.0 μg/ml
[9] = S. epidermidis ATCC 35984, BisEDT 0.05 μg/ml
[10] = S. epidermidis S2400-1, BisEDT 0 μg/ml
[11] = S. epidermidis S2400-1, BisEDT 0.0 μg/ml
[12] = S. epidermidis S2400-1, BisEDT 0.05 μg/ml
[13] = S. epidermidis S2400-1, BisEDT 0.1 μg/ml

SMILES	Δ (0.05 BE), biofilm prevention [1]	Biofilm Prevention (antibiotic concentration) ([1]; BisEDT 0 μg/ml)	Biofilm Prevention (antibiotic concentration) ([1]; BisEDT 0.05 μg/ml)	Biofilm Prevention (antibiotic concentration) ([1]; BisEDT 0.1 μg/ml)	Δ, MIC (S. epidermidis; S. epidermidis ATCC 35984)	MIC (S. epidermidis; [8])	MIC (S. epidermidis; [9])	Δ (0.05 BE), MIC (S. epidermidis; S. epidermidis S2400-1)	Δ (0.1 BE), MBC (S. epidermidis; S. epidermidis S2400-1)	MIC (S. epidermidis; [10])	MBC (S. epidermidis; [11])	MIC (S. epidermidis; [12])	MBC (S. epidermidis; [13])	MIC (S. epidermidis; [13])	Fold reduction of BPC in presence of subMIC BisEDT (S. epidermidis biofilm)	BPC ([2]; BisEDT 0 μg/mL)	BPC ([2]; BisEDT 0.025 μg/mL)	BPC ([2]; BisEDT 0.05 μg/mL)	BPC ([2]; BisEDT 0.1 μg/mL)	MIC Standards, R (resistance) (MRSA clinical isolates [4])	also measured
CCC[C@@H]1C[C@@H](C(=O)N[C@@H]([C@H]2O[C@H](SC)[C@H](O)[C@@H](O)[C@H]2O)[C@H](C)Cl)N(C)C1 [Clindamycin, clindamycin]	24.9	1195 µg/mL	48 µg/mL	12 µg/mL	2	2048.00 µg/mL	1024.00 µg/mL	2.67	2.67	2048 µg/mL	2048 µg/mL	768 µg/mL	768 µg/mL	24 µg/mL	50 fold	–	–	–	–	–	–
COc1c(N2CCNC(C)C2)c(F)cc2c(=O)c(C(=O)O)cn(C3CC3)c12 (centres unmarked) [Gatifloxacin, gatifloxacin]	16.0	1.6 µg/mL	0.1 µg/mL	0.1 µg/mL	–	–	–	2.13	2.00	1.7 µg/mL	2.8 µg/mL	0.8 µg/mL	1.4 µg/mL	0.3 µg/mL	10 fold	3.6 ± 2.6 µg/mL	2.6 ± 0.9 µg/mL	2.4 ± 1.1 µg/mL	0.9 ± 0.8 µg/mL	≧8 μg/ml	MIC (MRSA clinical isolates [3]; BisEDT 0 μg/mL, read-out: MIC): 3.6 ± 2.6 µg/mL; MIC (MRSA clinical isolates [3]; BisEDT 0.025 μg/mL, read-out: MIC): 4 ± 2.8 µg/mL; MIC (MRSA clinical isolates [3]; BisEDT 0.05 μg/mL, read-out: MIC): 4 ± 2.8 µg/mL; MIC (MRSA clinical isolates [3]; BisEDT 0.1 μg/mL, read-out: MIC): 2.4 ± 1.1 µg/mL; MIC Standards, S (antibiotic sensitivity) (MRSA clinical isolates [4]): ≦2 μg/ml
CN(C)c1ccc(O)c2c1C[C@H]1C[C@H]3[C@H](N(C)C)C(O)=C(C(N)=O)C(=O)[C@@]3(O)C(O)=C1C2=O [Minocycline, minocycline]	1.2	0.85 µg/mL	0.73 µg/mL	0.08 µg/mL	3.3	0.13 µg/mL	0.04 µg/mL	2.63	1.00	1.13 µg/mL	1.20 µg/mL	0.43 µg/mL	1.20 µg/mL	0.10 µg/mL	–	–	–	–	–	–	FICI, single-point BisEDT-antibiotic combination (Burkholderia cepacia): 2.23; FICI, single-point BisEDT-antibiotic combination [5]: 0.46; FICI, single-point BisEDT-antibiotic combination ([6]; MRSA 773): 1.23; FICI, single-point BisEDT-antibiotic combination ([6]; SA 100): 1.09; FICI, single-point BisEDT-antibiotic combination (Pseudomonas aeruginosa): 0.99; FICI, single-point BisEDT-antibiotic combination (Acinetobacter baumanii): 1.29; FICI, single-point BisEDT-antibiotic combination (Bukholderia multivorans): 1.12; FICI, single-point BisEDT-antibiotic combination (Enterococcus faecalis): 1.11; FICI, single-point BisEDT-antibiotic combination (Klebsiella pneumoniae): 1.29; FICI, single-point BisEDT-antibiotic combination (Escherichia coli; EC 102): 1.37; FICI, single-point BisEDT-antibiotic combination (Escherichia coli; EC 2232): 1.04
CN[C@H](CC(C)C)C(=O)N[C@H]1C(=O)N[C@@H](CC(N)=O)C(=O)N[C@H]2C(=O)N[C@H]3C(=O)N[C@H](C(=O)N[C@H](C(=O)O)c4cc(O)cc(O)c4-c4cc3ccc4O)[C@H](O)c3ccc(c(Cl)c3)Oc3cc2cc(c3O[C@@H]2O[C@H](CO)[C@@H](O)[C@H](O)[C@H]2O[C@H]2C[C@](C)(N)[C@H](O)[C@H](C)O2)Oc2ccc(cc2Cl)[C@H]1O [Vancomycin, vancomycin]	3.6	3.2 µg/mL	0.9 µg/mL	0.1 µg/mL	–	–	–	1.40	3.86	3.2 µg/mL	5.4 µg/mL	2.3 µg/mL	1.4 µg/mL	0.3 µg/mL	–	2.5 ± 1.7 µg/mL	1.5 ± 0.6 µg/mL	1.3 ± 0.5 µg/mL	0.7 ± 0.4 µg/mL	≧32 μg/ml	MIC (MRSA clinical isolates [3]; BisEDT 0 μg/mL): 2.5 ± 1.7 µg/mL; MIC (MRSA clinical isolates [3]; BisEDT 0.025 μg/mL): 2.5 ± 1.7 µg/mL; MIC (MRSA clinical isolates [3]; BisEDT 0.05 μg/mL): 1.5 ± 0.6 µg/mL; MIC (MRSA clinical isolates [3]; BisEDT 0.1 μg/mL): 1.3 ± 0.5 µg/mL; Synergy, MBC (S. epidermidis; S. epidermidis S2400-1): borderline; MIC Standards, S (antibiotic sensitivity) (MRSA clinical isolates [4]): ≦4 μg/ml; Change of biofilm prevention concentration (BPC) (S. epidermidis biofilm; 0.05 μg/ml BisEDT): modest decreases
Cc1cc(NS(=O)(=O)c2ccc(N)cc2)no1 [sulphamethoxazole]	–	–	–	–	–	–	–	–	–	–	–	–	–	–	–	–	–	–	–	–	Antibiotic action on MRSA lawn with subMIC BisEDT [7]: enhanced antibiotic action
